This is an account of results in patent publication US8034756B2, “Formulations with unexpected cleaning performance incorporating a biodegradable chelant” (Dow Global Technologies LLC, priority 2006, dated 2011).

“Also recorded” adds a separate entry of the source.

Data set [1] in a line: Calcium oxalate titration. It counts as physicochemical. The note with it: pH about 11.6; titrated with 0.5 M CaCl2 to first faint permanent turbidity. The source says:
The primary metal present in the standard ASTM soil is calcium. One method of estimating the calcium control performance of a chelating agent is to perform a calcium titration that utilizes the tendency to produce a calcium precipitate when a given amount of chelant can no longer control any additional added calcium, thus producing a visible precipitate. Using such a titration test, one normally deems the best chelants for calcium control as those that accept the most calcium before the precipitate appears per a given unit of chelating agent. A standard titration test often employed to determine a chelant's calcium control effectiveness is the calcium oxalate titration. In this titration, standard calcium chloride titrant is added to a measured amount of chelating agent and the onset of calcium oxalate precipitate (detected as the first permanent turbidity that forms) defines the amount of calcium that can be controlled. Strong chelants accept a mole-for-mole amount of calcium, while weaker chelants will accept less than a mole-for-mole amount of calcium in this titration. […]

For data set [2] the following is noted: overall constant, log of [metal complex]/([free metal][free ligand]); cited from earlier work.
For data set [3] the following is noted: overall constant, log of [metal complex]/([free metal][free ligand]); cited from earlier work. The source holds these as a separate data set.
For data set [4] the following is noted: overall constant, log of [metal complex]/([free metal][free ligand]); cited from earlier work. The source holds these as a separate data set.
Data set [5] can be described thus: ASTM D5343 cleaning performance of ceramic tile cleaners (number of strokes). The settings on record: ASTM D5343 tile cleaning test. The method, then: Cleaning formulations are prepared to contain the following (by weight): 2.62% Sodium dodecylbenzene sulfonic acid, 2.62% cocoamidopropyl betaine (Lonzaine C), 2.62% ethylene glycol butyl ether (Dowanol EB™), 3.2% of the chelant salt (except for the blank, which contains all components except the chelant), and the balance water. Thus the formulation of Example 31 contains 3.2% by weight of the chelant salt (in this case, K2HEIDA), and so on for Examples 32 and 33 which evaluate (K)1.8(Na)0.2(HEIDA), and (K)1.6(Na)0.4(HEIDA), respectively, as well as Comparative Examples 27-30 which evaluate the formulations containing Na4EDTA, Na2HEIDA, K4EDTA, and (K)1.0(Na)1.0(HEIDA), respectively.
The cleaning ability of these compositions is determined according to ASTM D5343, “Standard Guide for Evaluating Cleaning Performance of Ceramic Tile Cleaners:” using soiled white bathroom tiles as directed by the procedure. […] 10 ml of the cleaning formulation is placed on the face of a pre-moistened sponge, then the number of strokes (under 454 grams of force) are determined to achieve soil removal of 90% or greater. The number of strokes required by each formulation to obtain 90% or greater soil removal is recorded for each cleaning formulation.

A short description of data set [6]: CSMA DCC-16 scrubber test for removal of lime soap (panel rating). The settings on record: panel scale 0 to 5; 1 gram cleaning solution, 30 seconds, 6 cycles at 454 grams of force; formulation with 3.2% chelant salt. The source says:
Black ceramic tiles (meeting ANSI standard A371.1, 4¼″ square) are soiled as directed by the procedure described in […] Specialties Manufacturers Association DCC-16, (CSMA Detergents Division Test Methods Compendium—Third Edition—May 1995—Pages I-51 to I-55) “Guidelines for Evaluating the Efficacy of Bathroom Cleaners, Part 2: Scrubber Test for Measuring the Removal of Lime Soap.”. The principal metals present in the soil mixture used in the tile cleaning test are calcium, followed by magnesium, present as their highly insoluble stearate salts (soap scum). Cleaning solution formulations are prepared as described in the previous example. To the surface of the soiled tiles on the scrubbing apparatus, 1 gram of cleaning solution is sprayed and allowed to stand for 30 seconds. The tile is then scrubbed with a pre-moistened sponge with 454 grams of force for 6 cycles (total of 12 passes over the soiled tile). The tile is then rinsed with water and allowed to air dry. Panelists judge the cleanliness of the tiles on a scale from 0 to 5 (with “0” for completely dirty and “5” for completely cleaned), and the results of the observations are averaged.

Data set [7] in a line: Standard laboratory biodegradation tests (OECD 301A, 301B, 301D, 301E, 306). The settings on record: 301E and OECD 306 seawater test. The source says:
The above Log K values show the dramatically greater chelation strength of EDTA as compared to HEIDA. One would expect that the chelating agent with the greatest metal ion affinity (in this case, EDTA) would have the better performance for removing the soil containing Ca, Mg, and Fe3+.

With `O=C(O)CN(CCN(CC(=O)O)CC(=O)O)CC(=O)O` [EDTA, ethylene diamine tetraacetate], the “% Molar Chelation of calcium (max. = 100)” value in data set [1] was found to be 100%. Besides, in data set [2], the “Log K Ca” value is recorded as 10.7. Besides, the “Log K Mg” value in data set [3] was 8.7. In addition, in data set [4], the “Log K Fe3+” value was 25.1.
Turning to `O=C([O-])CN(CCO)CC(=O)[O-].[K+].[K+]` [Example K2HEIDA], the “cleaning performance compared in words” value in data set [5] is reported as “equal performance; also recorded: performs equally as well as K4EDTA”. The “Cleaning rating (higher is better)” value in data set [6] is on record as 4.67 (+/−0.26). Also, the biodegradability entry in data set [7] is “readily biodegradable”.
With `O=C([O-])CN(CCN(CC(=O)[O-])CC(=O)[O-])CC(=O)[O-].[K+].[K+].[K+].[K+]` [Example K4EDTA], the “Cleaning rating (higher is better)” value in data set [6] is listed as 3.60 (+/−0.13).
